pEC50, pIC50: −log10 of the molar value.
How the values were obtained:
[1] = target: T1, P2X purinoceptor 3 (Homo sapiens) (UniProt P56373); assay: Antagonist activity at recombinant human P2X3 receptor expressed in Flp-In-293 cells assessed as inhibition of alphabeta-meATP-induced calcium flux preincubated for 10 mins followed by alphabeta-meATP addition measured at 5 sec intervals by Fluo-4 dye based FLIPR assay; assay type: cell-based
T1 sequence (whole entry): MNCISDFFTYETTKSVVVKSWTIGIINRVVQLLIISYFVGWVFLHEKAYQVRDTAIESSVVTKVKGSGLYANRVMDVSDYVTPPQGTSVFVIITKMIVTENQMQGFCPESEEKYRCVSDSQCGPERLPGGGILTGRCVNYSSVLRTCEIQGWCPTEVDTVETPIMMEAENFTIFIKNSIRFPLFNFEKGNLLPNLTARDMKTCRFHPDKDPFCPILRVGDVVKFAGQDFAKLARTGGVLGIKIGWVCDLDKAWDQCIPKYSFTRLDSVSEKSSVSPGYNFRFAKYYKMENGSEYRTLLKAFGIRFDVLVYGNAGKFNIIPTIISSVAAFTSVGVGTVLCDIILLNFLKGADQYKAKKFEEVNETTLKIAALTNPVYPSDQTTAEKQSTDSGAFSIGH

[2] = Protein binding in rat plasma; assay type: ADME, cell-free; conditions: read-out: PPB (converted)
[3] = Intrinsic clearance in rat; assay type: ADME, organism-based; conditions: in vivo
[4] = Half life in rat; assay type: ADME, organism-based; conditions: in vivo
[5] = target: Cytochrome P450 2C9 (Homo sapiens, UniProt P11712); assay: Inhibition of CYP2C9 (unknown origin); assay type: ADME
Chain of Cytochrome P450 2C9 (P11712 whole entry): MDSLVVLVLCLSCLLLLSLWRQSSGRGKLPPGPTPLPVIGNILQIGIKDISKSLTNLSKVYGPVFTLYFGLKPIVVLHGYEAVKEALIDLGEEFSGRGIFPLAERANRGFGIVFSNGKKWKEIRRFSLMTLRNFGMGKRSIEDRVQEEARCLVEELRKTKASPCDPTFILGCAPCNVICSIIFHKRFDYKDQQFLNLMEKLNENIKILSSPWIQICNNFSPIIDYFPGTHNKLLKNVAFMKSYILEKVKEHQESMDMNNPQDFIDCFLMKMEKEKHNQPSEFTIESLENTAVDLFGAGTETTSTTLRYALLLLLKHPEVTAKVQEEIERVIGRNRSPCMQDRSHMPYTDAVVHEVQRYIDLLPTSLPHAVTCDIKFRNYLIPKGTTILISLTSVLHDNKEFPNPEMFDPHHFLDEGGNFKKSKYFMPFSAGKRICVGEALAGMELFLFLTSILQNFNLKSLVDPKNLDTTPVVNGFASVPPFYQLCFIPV

[6] = target: T2, Nuclear receptor subfamily 1 group I member 2 (Homo sapiens, UniProt O75469); assay: Activation of PXR (unknown origin); assay type: ADME
T2 sequence (O75469 whole entry): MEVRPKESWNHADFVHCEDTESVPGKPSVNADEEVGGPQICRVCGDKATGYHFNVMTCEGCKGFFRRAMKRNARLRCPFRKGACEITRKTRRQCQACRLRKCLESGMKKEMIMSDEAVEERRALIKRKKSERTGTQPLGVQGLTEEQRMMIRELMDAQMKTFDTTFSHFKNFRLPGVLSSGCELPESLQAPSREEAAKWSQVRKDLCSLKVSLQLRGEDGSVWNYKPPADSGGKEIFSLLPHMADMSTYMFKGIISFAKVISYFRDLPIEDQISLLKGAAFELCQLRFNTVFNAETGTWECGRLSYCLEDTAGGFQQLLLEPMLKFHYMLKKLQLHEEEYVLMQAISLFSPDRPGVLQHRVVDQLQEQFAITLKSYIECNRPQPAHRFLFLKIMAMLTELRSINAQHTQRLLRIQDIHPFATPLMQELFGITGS

[7] = Oral bioavailability in rat; assay type: ADME, organism-based; conditions: in vivo
[8] = Oral bioavailability in dog; assay type: ADME, organism-based, Canis lupus familiaris; conditions: in vivo
[9] = target: T3, PXR (Homo sapiens, UniProt O75469); assay: Activation of PXR (unknown origin) at 10 uM relative to control; assay type: ADME; conditions: read-out: Activity
T3 sequence (O75469 whole entry): T2 sequence (O75469 whole entry)

[10] = target: T4, P2X purinoceptor 3 (Homo sapiens, UniProt P56373); assay: Antagonist activity at recombinant human P2X3 receptor expressed in Flp-In-293 cells assessed as inhibition of CTP-induced […] current response preincubated for 2 mins followed by CTP addition along with test compound by whole cell patch-clamp method; assay type: cell-based
T4 sequence (P56373 whole entry): T1 sequence (whole entry)

[11] = Oral bioavailability in rhesus monkey; assay type: ADME, organism-based, Macaca mulatta; conditions: in vivo
[12] = target: T5, UDP-glucuronosyltransferase 1A1 (Homo sapiens, UniProt P22309); assay: Inhibition of human UGT1A1 expressed in baculovirus infected insect cells using bilirubin as substrate measured after 10 mins by HPLC analysis; assay type: ADME
T5 sequence (P22309 whole entry): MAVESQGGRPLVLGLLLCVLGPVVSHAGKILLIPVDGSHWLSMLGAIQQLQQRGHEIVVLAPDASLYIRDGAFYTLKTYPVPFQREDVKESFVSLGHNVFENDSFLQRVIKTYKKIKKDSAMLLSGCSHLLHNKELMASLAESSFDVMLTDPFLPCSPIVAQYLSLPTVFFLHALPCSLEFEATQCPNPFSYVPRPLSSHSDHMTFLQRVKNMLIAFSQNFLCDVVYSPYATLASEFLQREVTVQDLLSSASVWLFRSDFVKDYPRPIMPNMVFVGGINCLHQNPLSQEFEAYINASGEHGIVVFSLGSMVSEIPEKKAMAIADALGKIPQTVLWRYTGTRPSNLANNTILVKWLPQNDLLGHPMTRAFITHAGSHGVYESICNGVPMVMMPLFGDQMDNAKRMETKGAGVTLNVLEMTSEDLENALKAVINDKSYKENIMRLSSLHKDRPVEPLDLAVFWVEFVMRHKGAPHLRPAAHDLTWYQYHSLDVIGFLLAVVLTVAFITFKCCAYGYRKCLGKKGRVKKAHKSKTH

[13] = system: Rattus norvegicus; assay: Antinociceptive activity in complete freund's adjuvant induced mechanical hypersensitivity Sprague-Dawley rat model assessed as reversal of mechanical hyperalgesia by measuring hind paw withdrawal thresholds at 60 mg/kg, po; assay type: functional
[14] = Protein binding in dog plasma; assay type: ADME, cell-free, Canis lupus familiaris; conditions: read-out: PPB (converted)
[15] = Half life in dog; assay type: ADME, organism-based, Canis lupus familiaris; conditions: in vivo
[16] = Intrinsic clearance in dog; assay type: ADME, organism-based, Canis lupus familiaris; conditions: in vivo
[17] = target: T5, UDP-glucuronosyltransferase 1A1; assay: Inhibition of UGT1A1 in human liver microsomes assessed as decrease in estradiol-3 glucuronidation; assay type: ADME

Row | Compound | pIC50 [1] | fraction unbound [2] | CLint scaled [3] [mL/min/kg] | other results
1 | Cc1ccc(-c2cc(C(=O)NCCc3nc(C)no3)cc(-c3ncccc3F)c2)nc1 | 7.35 |  |  | 
2 | C[C@@H](NC(=O)c1cc(-c2ccc(F)cn2)cc(C(C)(C)O)c1)c1ccc(C(F)(F)F)[n+]([O-])c1 | 7.09 | 0.447 | 477 | half-life [4]: 0.48 h
3 | Cc1ccc(-c2cc(C(=O)N[C@@H](C)c3nnc[nH]3)cc(-c3ncccc3F)c2)nc1 | 8.00 | 0.012 |  | 
4 | Cc1ccc(-c2cc(C(=O)N[C@H](C)c3ccc(C(F)(F)F)[n+]([O-])c3)cc(C(C)(C)O)c2)cc1 | 7.70 | 0.046 | 6790 | half-life [4]: 0.2 h
5 | C[C@@H](NC(=O)c1cc(-c2ccc(Cl)cc2)cc(C(C)(C)O)c1)c1ccc(C(F)(F)F)[n+]([O-])c1 | 7.68 | 0.026 | 214 | half-life [4]: 2.4 h
6 | Cc1ccc(-c2cc(C(=O)N[C@@H](C)c3nc(C)no3)cc(-c3ncccc3F)c2)nc1 | 7.77 |  |  | 
7 | Cc1ccc(-c2cc(C(=O)N[C@@H](c3nc(C)no3)C3CC3)cc(-c3ncccc3F)c2)nc1 | 7.52 |  |  | 
8 | Cc1ccc(-c2cc(C(=O)N[C@H](C)c3ccc(C(F)(F)F)[n+]([O-])c3)cc(C(C)(C)O)c2)nc1 | 8.30 | 0.376 |  | pIC50 [5]: < 4.30; pEC50 [6]: < 4.52
9 | Cc1ccc(-c2cc(C(=O)N[C@H](C)c3ccc(C(F)(F)F)nc3)cc(-c3ncccc3F)c2)nc1 | 8.10 | 0.014 |  | 
10 | Cc1ccc(-c2cc(C(=O)NCc3nc(C(C)C)no3)cc(-c3ncccc3F)c2)nc1 | 6.81 |  |  | 
11 | Cc1ccc(-c2cc(C(=O)N[C@H](C)c3nnc[nH]3)cc(-c3ncccc3F)c2)nc1 | 6.55 |  |  | 
12 | Cc1ccc(-c2cc(C(=O)N[C@H](C)c3ccc(F)cn3)cc(N3CCOCC3)c2)nc1 | 7.33 | 0.149 | 533 | pEC50 [6]: < 4.52
13 | Cc1ccc(-c2cc(C(=O)N[C@H](C)c3ccc(F)cn3)cc(C3=NO[C@H](c4ccccn4)C3)c2)nc1 | 7.68 | 0.016 | 133 | bioavailability [7]: 60%; bioavailability [8]: 68%; activity at 10 µM [9]: 47%; pIC50 [5]: 5.24; pIC50 [10]: 7.62; bioavailability [11]: 47%; pIC50 [12]: 6.00; EC90 [13]: 3000 nM; half-life [4]: 1 h
14 | Cc1ccc(-c2cc(C(=O)N[C@H](C)c3ccc(C(F)(F)F)[n+]([O-])c3)cc(-c3ncccc3F)c2)nc1 | 8.30 | 0.048 |  | 
15 | Cc1ccc(-c2cc(C(=O)NC3(c4nc(C)no4)CC3)cc(-c3ncccc3F)c2)nc1 | 6.77 |  |  | 
16 | Cc1ccc(-c2cc(C(=O)N[C@H](C)c3ccc(F)c[n+]3[O-])cc(-c3ncccc3F)c2)nc1 | 8.70 | 0.096 |  | 
17 | C[C@@H](NC(=O)c1cc(-c2ccc(Cl)cn2)cc(C(C)(C)O)c1)c1ccc(C(F)(F)F)[n+]([O-])c1 | 7.85 | 0.238 | 69 | bioavailability [7]: 13%; bioavailability [8]: 63%; fraction unbound [14]: 0.263; half-life [15]: 3.9 h; pIC50 [5]: 4.09; pIC50 [10]: 7.74; pEC50 [6]: < 4.52; EC90 [13]: 160 nM; half-life [4]: 1.3 h; CLint scaled [16]: 7.7 mL/min/kg; pIC50 [17]: < 4.70
18 | Cc1ccc(-c2cc(C(=O)N[C@H](C)c3nc(C)no3)cc(-c3ncccc3F)c2)nc1 | 8.52 | 0.004 |  | 
19 | Cc1ccc(-c2cc(C(=O)N[C@H](C)c3ccc(C(F)(F)F)nc3)cc(C(C)(C)O)c2)nc1 | 7.85 | 0.048 |  | pIC50 [5]: 4.72; pEC50 [6]: 4.74
20 | Cc1ccc(-c2cc(C(=O)N[C@H](C)c3ccc(F)cn3)cc(-c3ncccc3F)c2)nc1 | 8.10 | 0.008 | 24800 | pEC50 [6]: 5.22
21 | Cc1ccc(-c2cc(C(=O)N[C@H](C)c3ccc(F)cn3)cc(C(C)(C)O)c2)nc1 | 7.17 | 0.18 |  | pEC50 [6]: 5.70
22 | Cc1ccc(-c2cc(C(=O)N[C@H](C)c3ccc(F)cn3)cc(-n3nccn3)c2)nc1 | 7.43 | 0.026 | 3910 | 

— ChEMBL document CHEMBL4219153, “Identification of second-generation P2X3 antagonists for treatment of pain” (Bioorg Med Chem Lett, 2018)
